# Measurements as given in patent US5994336A, “Method of inhibiting proliferation of cells by administering an aminosterol compound” (priority 1995, dated 1999).
# “Also recorded” adds a separate entry of the source.
# Legend:
# C. albicans = assay: Antibiotic activity, MIC; format: cell-based; settings: Candida albicans
# Excerpt: (§1) Thus, it is possible to achieve an antimicrobial steroid with or without squalamine-like pharmacological activity.
# E. coli = assay: Antibiotic activity, MIC; format: cell-based; settings: Escherichia coli
# Excerpt: as §1
# P. aerug = assay: Antibiotic activity, MIC; format: cell-based
# Excerpt: as §1
# S. aureus = assay: Antibiotic activity, MIC; format: cell-based; settings: Staphylococcus aureus
# Excerpt: as §1
# MTT assay (Table II) = format: cell-based; settings: read-out: Minimum Effective Concentration, MTT assay
# Excerpt: (§2) As set forth in Table II, which follows Table I, the activities of natural and synthetic aminosterols in the different assays vary. In light of the foregoing, it is now possible to screen for steroids with or without squalamine-like pharmacological activity.
# [1] = test system: Xenopus tadpole, stage 59-60; assay: Tadpole assay; format: in vivo, Xenopus laevis; settings: 10 μg/ml; for pharmacological response in tadpole (words): stage 59-60
# Excerpt: For example, substances that destroy all of the animal's epithelium, both adult and embryonic, could be regarded as toxic.
# The volume of liquid is sufficient for the animal to swim freely and drink from the solution. […] If the volume of liquid is not sufficient to permit oral intake, the effects that are observed would result from absorption through the surface epithelium.
# In another embodiment of this assay, a solution of a compound in water can be injected directly into the abdomen of the animal using standard techniques.
# After an amount of time, typically about 60 minutes, the occlusion of blood flow through capillaries in the tadpole's tail are observed under an inverted microscope at a magnification of roughly 100×.
# In the assay, each of the steroids was dissolved in 100 ml of distilled water at a concentration of 10 μg/ml. Stage 59-60 Xenopus tadpoles were introduced and evaluated by light microscopy and gross observation 1 hour later.
# [2] = test system: Human ovarian carcinoma SKOV3; assay: Growth inhibition in vitro (Table 7); format: cell-based
# Protocol: As set forth in Table 7 below, all malignant tumors evaluated in tissue culture, endothelial cells and vascular smooth muscle cells were sensitive to inhibition. Thus, compound 1436 has application in the control of growth factor dependent proliferation of many types of tissue.
# Using the assay described above, the anticancer effects of compound 1437 against several cancer lines was assessed.
# [3] = Effect on fasting blood glucose in mice; format: in vivo, mouse; settings: i.v.
# Protocol: To study the effect of steroid administrator or the NHE responsible for secretion of insulin, several of the aminosterols from shark liver were administered to fasting mice. Male CD-1 mice were assigned to one of four treatment groups. Whole blood glucose was tested using glucometer (Lifescan Glucometer II and One Touch test strips). Statistical analysis was via one-way analysis of variance (ANOVA) followed by subsequent Bonferonni's t-test.
# vitelline capillaries = assay: Chick embryo vitelline capillary regression assay; format: in vivo
# Protocol: Using the chick embryo vitelline capillaries assay, compounds were tested for their ability to induce capillary regression. Each compound was applied in 0.1 ml of 15% Ficol 400 and PBS onto the embryo, and vascular regression was assessed after 60 minutes.
# The 3-day chick embryo consists of an embryonic disc from which numerous vessels emerge and return, forming a "FIG. 8"-shaped structure--the embryo in the center with vascular loops extending outward over both poles. […] Following a lag period of around 15 minutes, the constriction of continuity between capillary and secondary vessels, generally on the "venous" side, was observed. Continued pulsatile blood flow progressed, resulting in a "swelling" of the blind tube, followed by a pinching off of the remaining connection and formation of an enclosed vascular sac resembling a "blood island." This process progressed until only the largest vessels remained intact.
# [4] = test system: human microvascular cells; assay: Inhibition of endothelial cell cord formation in vitro; format: cell-based; settings: Homo sapiens, Endothelial cell; Table II; read-out: Minimum Effective Concentration, Cord Formation
# Excerpt: Endothelial cells have the capacity in vitro to form tubular aggregates resembling capillaries in various early stages of formation. This conversion occurs under relatively specific conditions, in which essential growth factors along with an effective substratum are provided. It has been shown that both the interaction of growth factors with the endothelial cell and its attachment to a substratum activate the NHE. The activation of this exchanger is believed to be required for subsequent morphologic transformation of the endothelial cell into a multicellular tubular structure.
# To assess the effect of compounds on the cord-like structures formed by human microvascular cells when plated in the presence of VEGF (Vascular Endothelial Growth Factor) and basic fibroblast growth factor on a collagen matrix, a standard cord formation assay was used.
# Lic = assay: MTT Lic (Table II); format: cell-based; settings: read-out: Minimum Effective Concentration, MTT Lic
# Excerpt: as §2
smiles,measurement,setting,value
CC(O)[C@H]1CC[C@H]2[C@@H]3CC[C@H]4C[C@@H](NCCCNCCCCN)CC[C@]4(C)[C@H]3CC[C@]12C (some centres unmarked),MIC,C. albicans,64 µg/mL
same,MIC,E. coli,32 to 64 µg/mL
same,MIC,P. aerug,256 µg/mL
same,MIC,S. aureus,4 µg/mL
CC(C)CCC[C@@H](C)[C@H]1CC[C@H]2[C@@H]3[C@H](O)C[C@H]4C[C@H](NCCCNCCCCN)CC[C@]4(C)[C@H]3CC[C@]12C [drawing 94],minimal effective concentration,MTT assay (Table II),4 µg/mL
C[C@H](CCC(=O)O)[C@H]1CC[C@H]2[C@@H]3[C@H](O)C[C@@H]4C[C@H](NCCCNCCCCNCCCN)CC[C@]4(C)[C@H]3CC[C@]12C [Compound 412],pharmacological response in tadpole (words),[1],pharmacologic activity similar to that seen for FX 3
"CC(C)C(CO)(CC[C@@H](C)[C@H]1CC[C@H]2[C@@H]3[C@H](O)C[C@H]4C[C@@H](NCCCNCCCCN)CC[C@]4(C)[C@H]3CC[C@]12C)OS(=O)(=O)O (single isomer, unassigned) [Compound 1437]",tissues or functions not affected in tadpole,[1],"Animal was otherwise active, with little tissue breakdown noted"
same,pharmacological response in tadpole (words),[1],"Epithelium covering the embryonic portions of the animal, such as the tail and antennae, began to slough off in sheets; also recorded: dramatic effect on the embryonic epithelium covering the tadpole tale"
same,anticancer activity,[2],exhibit anticancer activity
same,blood glucose effect,[3],caused hyperglycemia in mice
COC(=O)CC[C@@H](C)[C@H]1CC[C@H]2[C@@H]3C[C@@H](O)[C@H]4C[C@H](NCCN)CC[C@]4(C)[C@H]3CC[C@]12C [Compound 431],pharmacological response in tadpole (words),[1],functionally similar to compound 1437
C[C@H](CCC(=O)O)[C@H]1CC[C@H]2[C@@H]3[C@H](O)C[C@@H]4C[C@H](NCCN)CC[C@]4(C)[C@H]3CC[C@]12C [Compound 414],pharmacological response in tadpole (words),[1],pharmacologic activity similar to Fraction 1
CC(C)CCC[C@@H](C)[C@H]1CC[C@H]2[C@@H]3[C@H](O)C[C@H]4C[C@H](N)CC[C@]4(C)[C@H]3CC[C@]12C [Compound 1363],pharmacological response in tadpole (words),[1],pharmacologic activity similar to Fraction 1
CC(C)CCC[C@@H](C)[C@H]1CC[C@H]2[C@@H]3[C@H](O)C[C@H]4C[C@H](NCCCNCCCCN)CC[C@]4(C)[C@H]3CC[C@]12C [Compound 370],pharmacological response in tadpole (words),[1],pharmacologic activity similar to that seen for FX 3
C[C@H](CCC(=O)O)[C@H]1CC[C@H]2[C@@H]3[C@H](O)C[C@@H]4C[C@@H](NCCN)CC[C@]4(C)[C@H]3CC[C@]12C [Compound 415],activity on vitelline capillaries,vitelline capillaries,especially active
CC(CC[C@@H](OS(=O)(=O)O)C(C)C)[C@H]1CCC2C3C(CC[C@@]21C)[C@@]1(C)CC[C@H](NCCCNCCCCN)C[C@@H]1C[C@H]3O (some centres unmarked),minimal effective concentration,[4],0.01 to 0.1 µg/mL
same,minimal effective concentration,Lic,13.2 µg/mL
CC(O)[C@H]1CC[C@H]2[C@@H]3CC[C@H]4C[C@H](NCCCNCCCCN)CC[C@]4(C)[C@H]3CC[C@]12C (some centres unmarked),MIC,C. albicans,128 µg/mL
same,MIC,E. coli,64 µg/mL
same,MIC,P. aerug,128 µg/mL
same,MIC,S. aureus,16 µg/mL
COC(=O)CC[C@@H](C)[C@H]1CC[C@H]2[C@@H]3C[C@@H](O)[C@H]4C[C@@H](NCCCNCCCCNCCCN)CC[C@]4(C)[C@H]3CC[C@]12C [Compound 466],pharmacological response in tadpole (words),[1],pharmacologic activity similar to that seen for FX 3
CC(C)CCC[C@@H](C)[C@H]1CC[C@H]2[C@@H]3CC[C@H]4C[C@@H](NCCCNCCCCNCCCN)CC[C@]4(C)[C@H]3CC[C@]12C [drawing 86],minimal effective concentration,MTT assay (Table II),3 µg/mL
CC(C)CCC[C@@H](C)[C@H]1CC[C@H]2[C@@H]3[C@H](O)C[C@H]4C[C@@H](NCCCNCCCCN)CC[C@]4(C)[C@H]3CC[C@]12C [Compound 371],pharmacological response in tadpole (words),[1],effects like those produced by compound 1436
COC(=O)CC[C@@H](C)[C@H]1CC[C@H]2[C@@H]3[C@H](O)C[C@@H]4C[C@@H](NCCN)CC[C@]4(C)[C@H]3CC[C@]12C [Compound 409],pharmacological response in tadpole (words),[1],functionally similar to compound 1437
COC(=O)CC[C@@H](C)[C@H]1CC[C@H]2[C@@H]3C[C@@H](O)[C@H]4C[C@H](NCCCNCCCCNCCCN)CC[C@]4(C)[C@H]3CC[C@]12C [Compound 465],pharmacological response in tadpole (words),[1],pharmacologic activity similar to that seen for FX 3
C[C@H](CCC(=O)O)[C@H]1CC[C@H]2[C@@H]3[C@H](O)C[C@@H]4C[C@@H](NCCCNCCCCNCCCN)CC[C@]4(C)[C@H]3CC[C@]12C [Compound 413],pharmacological response in tadpole (words),[1],effects like those produced by compound 1436
COC(=O)CC[C@@H](C)[C@H]1CC[C@H]2[C@@H]3[C@H](O)C[C@@H]4C[C@H](NCCN)CC[C@]4(C)[C@H]3CC[C@]12C [Compound 410],pharmacological response in tadpole (words),[1],functionally similar to compound 1437
COC(=O)CC[C@@H](C)[C@H]1CC[C@H]2[C@@H]3CC[C@H]4C[C@H](NCCCNCCCCNCCCN)CC[C@]4(C)[C@H]3CC[C@]12C [Compound 458],pharmacological response in tadpole (words),[1],pharmacologic activity similar to that seen for FX 3
"CC(COS(=O)(=O)O)C(=O)CC[C@@H](C)[C@H]1CC[C@H]2[C@@H]3[C@H](O)C[C@H]4C[C@@H](NCCCNCCCCN)CC[C@]4(C)[C@H]3CC[C@]12C (single isomer, unassigned) [Compound 1360]",effect on circulating embryonic blood,vitelline capillaries; within 20 minutes,the blood circulating through the embryonic vessels exhibited a brighter red color
same,pharmacological response in tadpole (words),[1],"Swelling and lysis of certain erythrocytes occurred, resulting in accumulation of nuclei within certain small vessels of the tail. Subsequent tissue breakdown occurred in areas of tail surrounding these nuclear plugs"
same,pharmacological response in tadpole (words),[1]; listed as compound 1360,extensive vasocclusion occurred within 60 minutes throughout the tail
C[C@H](CCC(=O)O)[C@H]1CC[C@H]2[C@@H]3C[C@@H](O)[C@H]4C[C@@H](NCCN)CC[C@]4(C)[C@H]3CC[C@]12C [Compound 433],pharmacological response in tadpole (words),[1],functionally similar to compound 1437
CC(CC[C@@H](OS(=O)(=O)O)C(C)C)[C@H]1CCC2C3C(CC[C@@]21C)[C@@]1(C)CC[C@H](NCCCNCCCCNCCCN)C[C@@H]1C[C@H]3O (some centres unmarked),minimal effective concentration,Lic,16.7 µg/mL
COC(=O)CC[C@@H](C)[C@H]1CC[C@H]2[C@@H]3CC[C@@H]4C[C@H](NCCN)CC[C@]4(C)[C@H]3C[C@H](O)[C@]12C [Compound 416],pharmacological response in tadpole (words),[1],functionally similar to compound 1437
COC(=O)CC[C@@H](C)[C@H]1CC[C@H]2[C@@H]3C[C@@H](O)[C@H]4C[C@@H](NCCN)CC[C@]4(C)[C@H]3CC[C@]12C [Compound 432],pharmacological response in tadpole (words),[1],functionally similar to compound 1437
COC(=O)CCC(C)[C@H]1CCC2C3C(CC[C@@]21C)[C@@]1(C)CC[C@@H](NCCN)C[C@H]1C[C@H]3O (some centres unmarked),minimal effective concentration,MTT assay (Table II),2.5 µg/mL
COC(=O)CC[C@@H](C)[C@H]1CC[C@H]2[C@@H]3CC[C@H]4C[C@@H](NCCCNCCCCNCCCN)CC[C@]4(C)[C@H]3CC[C@]12C [Compound 459],pharmacological response in tadpole (words),[1],pharmacologic activity similar to that seen for FX 3
